Data as given in US6086880A, “Rotavirus peptide compositions and methods of use” (The University of Saskatchewan, priority 1993, dated 2000).
No end group written: not given here.

Tests used:
BRV strain C486 = test: Prophylactic oral 232-255 peptide in neonatal mice before challenge; format: in vivo; parameters: key to Diarrheal Score: 0: no sign of diarrhea in live mice, or on necropsy; +: no external signs of diarrhea but semi-liquid colon contents at autopsy; ++: fluid was apparent on palpation of the abdomen and the colon was filled with liquid feces and gas; +++: the external anal region was soiled with feces and intestinal fluid was present on palpation; ++++: liquid feces were present around the anal region and on palpation of the abdomen intestinal fluid was present and oozed from the anus; severe dehydration, internal liquid content in colon and caecum and distention due to accumulation of gas; details: for Diarrheal Score: about one hour before 10^4 pfu; for Virus Titre: mouse intestines; for Plasma D-Xylose: no challenge: 119
Protocol: The 232-255 peptide synthesized in Example 7 was diluted serially in Eagle's Minimal Essential Medium. The peptide solutions of various dilutions were administered in 100 μl dosages to neonatal mice by oral administration. The pups were born of rotavirus-free strain CD-1 dams and administration was at 7 days of age (when the pups weigh about 4 g). Approximately one hour later the mice were challenged with 10^4 pfu of BRV strain C486. Clinical protection was scored as described in Example 6. Diarrhea was scored clinically as well as on necropsy, and plasma D-xylose was determined by administering 100 μl of 5% w/v D-xylose solution, sacrificing the mice two hours later, collecting the blood and determining plasma D-xylose concentration as described above. Virus titers were determined in the mouse intestines by suspending in MEM and homogenizing for virus titration. Mice which received no challenge had plasma D-xylose levels of 119 μg/100 μl and zero viral titers.

VP6 45 kd capsid protein = test: Binding of 232-255 peptide to VP6 of purified virus (laddering on polyacrylamide gel electrophoresis)
Source text: Laddering occurred both at the VP6 monomeric molecular weight of 45 kd and at the aggregate molecular weights of 90 kd and 135 kd regions. The increment in the ladder steps matched the MW of the 232-255 peptide. Trypsin treatment of the virus/peptide complex reduced the ladder to a virus profile identical with that of the trypsin-treated virus. The ladder could be detected with antisera produced against the synthetic peptide.

[1] = test system: infectious virus on MA104 cells; test: Plaque reduction by 232-255 peptide mixed with infectious virus on MA104 cells; format: cell-based; details: 100 pfu virus with 100 μg, 200 μg and 300 μg peptide
Protocol: In a protocol similar to a standard plaque reduction assay, MA104 cells were treated with 100 pfu of the virus in the absence of and in the presence of 100 μg, 200 μg and 300 μg of the 232-255 peptide.

trypsin = test: Trypsin susceptibility and competition with intact VP4 for trypsin; format: biochemical; details: for cleavage of VP4 by trypsin in presence of peptide: FIG. 8
Protocol: Susceptibility of the synthetic peptide to trypsin was confirmed by reaction with trypsin followed by electrophoresis. […] It was also established that the peptide could compete with intact VP4 for the enzyme. This was determined by measuring the ability of increasing concentrations of the synthetic peptide to reduce the amount of VP4 cleaved into the two products of molecular weight 60 kd and 28 kd.

[2] = test system: Monospecific anti-glycoprotein (VP7) serum; test: ELISA reactivity of synthetic peptides with monospecific anti-VP7 serum; format: binding; details: reciprocal of the dilution giving a 50% end point
Protocol: (§1) The reactivity and specificity of the synthetic peptides were determined by ELISA using either anti-VP7 monospecific VP7 serum or monoclonal antibodies specific for the various regions of VP7 and by adsorption blocking assays. […] As shown in the table, while all of the peptides were immunoreactive with the antiserum, only the peptides representing positions 247-259 and 275-295 were specifically immunoreactive with monoclonals directed to particular determinants.
(§2) ^a Antibody titers were determined by ELISA and are expressed as the
(§3) reciprocal of the dilution giving a 50% end point.

[3] = test system: Monoclonal antibody 11D12-6; test: ELISA reactivity of synthetic peptides with monoclonal antibody 11D12-6; format: binding; details: reciprocal of the dilution giving a 50% end point
Protocol: as §1, §2, §3

[4] = test system: virus attachment to MA104 cells; test: Adsorption blocking assay: inhibition of attachment of virus to MA104 cells; format: cell-based; details: FIG. 5
Protocol: as §1

[5] = test system: Monoclonal antibody 4B5-5; test: ELISA reactivity of synthetic peptides with monoclonal antibody 4B5-5; format: binding; details: reciprocal of the dilution giving a 50% end point
Protocol: as §1, §2, §3

[6] = test system: Monoclonal antibody 11D10-4; test: ELISA reactivity of synthetic peptides with monoclonal antibody 11D10-4; format: binding; details: reciprocal of the dilution giving a 50% end point
Protocol: as §1, §2, §3

[7] = test system: bovine rotavirus isolate C486; test: 50% plaque reduction assay on sera of mice immunized with KLH-conjugated VP7 peptides; format: in vivo, CD-1 mice; details: sera of mice given KLH-conjugated peptides; FIG. 7
Protocol: The sera obtained in Example 3 were tested for their ability to neutralize the infectivity of the bovine rotavirus isolate C486 using a standard 50% plaque reduction assay. In this assay, virus dilutions representing 30-50 PFU were mixed 1:1 with various dilutions of antibody and incubated for 1 hour at 37° C. Virus attachment to MA104 monolayers was allowed to proceed at 37° C. for 2 hours before the virus inoculum was removed; the cells were washed with MEM and then overlaid with 1.6% Bacto-agar (Difco) diluted in MEM and supple-mented with 5 μg of pancreatin per ml, 0.7% of a 1:1000 neutral red stock solution, and 0.1% DEAE-dextran. Plaques appeared after 5 to 6 days of incubation at 37° C.

[8] = test system: Monoclonal antibody 10D207; test: ELISA reactivity of synthetic peptides with monoclonal antibody 10D207; format: binding; details: reciprocal of the dilution giving a 50% end point
Protocol: as §1, §2, §3

NIAPASIVSRNIVYTRAQPNDIA [Peptide 232-255]
Diarrheal Score (BRV strain C486; 100 μg peptide oral): +++
Virus Titre (BRV strain C486; 100 μg peptide oral): 1.2 × 10^3 PFU/ml
Plasma D-Xylose (BRV strain C486; 100 μg peptide oral): 92 μg/100 μl
Diarrheal Score (BRV strain C486; 250 μg peptide oral): ++
Virus Titre (BRV strain C486; 250 μg peptide oral): 4.0 × 10^2 PFU/ml
Plasma D-Xylose (BRV strain C486; 250 μg peptide oral): 70 μg/100 μl
Diarrheal Score (BRV strain C486; 500 μg peptide oral): 0
Virus Titre (BRV strain C486; 500 μg peptide oral): 0 PFU/ml
Plasma D-Xylose (BRV strain C486; 500 μg peptide oral): 101 μg/100 μl
Diarrheal Score (BRV strain C486; 1000 μg peptide oral): 0
Virus Titre (BRV strain C486; 1000 μg peptide oral): 0 PFU/ml
Plasma D-Xylose (BRV strain C486; 1000 μg peptide oral): 112 μg/100 μl
laddering of VP6 on polyacrylamide gel electrophoresis (VP6 45 kd capsid protein; 25 μg peptide with 2 μg purified virus): laddering was not apparent
laddering of VP6 on polyacrylamide gel electrophoresis (VP6 45 kd capsid protein; 100 μg peptide with 2 μg purified virus, 30 minutes at 37° C.): showed a laddering effect
plaque reduction [1]: capable of plaque reduction in a dose-dependent manner
cleavage of VP4 by trypsin in presence of peptide (trypsin; 25 μg (232-255)/25 μg VP4): complete cleavage of VP4
susceptibility of the peptide to trypsin (trypsin; reaction with trypsin followed by electrophoresis): cleaved by trypsin in a dose-dependent manner
cleavage of VP4 by trypsin in presence of peptide (trypsin; synthetic peptide increased to 200 μg): intact VP4 is evident

RNCKKLGPRENVA [p247-259]
Antibody titer (ELISA), monospecific anti-glycoprotein (VP7) serum with synthetic peptide [2]: 1,000
Antibody titer (ELISA), monoclonal antibody 11D12-6 with synthetic peptide [3]: 100
ability to inhibit attachment of virus to MA104 cells [4]: able to block virus attachment
Antibody titer (ELISA), monoclonal antibody 4B5-5 with synthetic peptide [5]: 5,000
Antibody titer (ELISA), monoclonal antibody 11D10-4 with synthetic peptide [6]: 4,000
virus-neutralizing antibodies induced (50% plaque reduction assay) [7]: induced virus-neutralizing antibodies
Antibody titer (ELISA), monoclonal antibody 10D207 with synthetic peptide [8]: 20

YQQTDEANK [p174-183]
Antibody titer (ELISA), monospecific anti-glycoprotein (VP7) serum with synthetic peptide [2]: 2,500
Antibody titer (ELISA), monoclonal antibody 11D12-6 with synthetic peptide [3]: 10
Antibody titer (ELISA), monoclonal antibody 4B5-5 with synthetic peptide [5]: 50
Antibody titer (ELISA), monoclonal antibody 11D10-4 with synthetic peptide [6]: 10
Antibody titer (ELISA), monoclonal antibody 10D207 with synthetic peptide [8]: 10
